Experimental data from the supplement of paper PMC10307832.

compound: Cc1ccc2nc(NCCN)c3ncc(C)n3c2c1 + C[C@@H](Oc1cc(-c2cnn(C3CCNCC3)c2)cnc1N)c1c(Cl)ccc(F)c1Cl [Crizotinib] (partner 1 µM); test: relative viability (nuclei count vs DMSO), 5 days (fraction); higher = more cells survive; details: first compound 0.04 µM
Summary of the method: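 After 5 days of treatment, lung cancer cells in 1536-well plates were fixed and stained in a single step (final 0.05% Triton X-100, 1% formaldehyde, 1 ug/ml Hoechst) and their nuclei counted on 4× images. Treatment had been applied by pin tool the day after seeding as one drug alone or as a fixed anchor-drug dose with five library-drug doses (not always all listed) in √10 steps. Relative viability is the nuclei count of treated wells divided by that of vehicle wells, and values are medians of duplicate plates.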

Cell Line | relative viability
COR-L23 | 0.737
COR-L 105 | 0.797
LOU-NH91 | 0.753
NCI-H2405 | 0.951
HOP-62 | 1.01
HCC-44 | 0.851
SK-MES-1 | 0.924
LU99A | 0.636
BEN | 0.944
HARA | 0.951
HCC-78 | 0.37
NCI-H322M | 1.02
LCLC-97TM1 | 0.379
NCI-H2009 | 1.06
A-427 | 1.01
NCI-H661 | 1.05
NCI-H1734 | 0.673

Cell Line | relative viability
NCI-H460 | 0.98
NCI-H2347 | 0.653
SK-LU-1 | 0.926
201T | 1.07
NCI-H1915 | 0.823
HCC-827 | 0.792
LXF-289 | 0.806
NCI-H23 | 0.731
NCI-H647 | 1.29
CAL-12T | 0.787
NCI-H1651 | 0.732
EPLC-272H | 0.948
NCI-H2228 | 0.51
NCI-H1792 | 1.03
NCI-H1355 | 1.1
NCI-H3122 | 0.291

same assay, conditions: first compound 0.1265 µM

Cell Line | relative viability
COR-L23 | 0.608
COR-L 105 | 0.721
LOU-NH91 | 0.714
NCI-H2405 | 0.827
HOP-62 | 0.895
HCC-44 | 0.827
SK-MES-1 | 0.939
LU99A | 0.549
BEN | 0.59
HARA | 0.916
HCC-78 | 0.327
NCI-H322M | 0.882
LCLC-97TM1 | 0.394
NCI-H2009 | 1.06
A-427 | 1.01
NCI-H661 | 1.07

Cell Line | relative viability
NCI-H1734 | 0.733
NCI-H460 | 0.923
NCI-H2347 | 0.673
SK-LU-1 | 0.937
201T | 1.06
HCC-827 | 0.903
LXF-289 | 0.834
NCI-H23 | 0.549
NCI-H647 | 1.03
CAL-12T | 0.716
NCI-H1651 | 0.795
EPLC-272H | 0.846
NCI-H2228 | 0.436
NCI-H1792 | 1.03
NCI-H1355 | 1.15
NCI-H3122 | 0.304

same assay, conditions: first compound 0.4 µM

Cell Line | relative viability
COR-L23 | 0.628
COR-L 105 | 0.887
LOU-NH91 | 0.748
NCI-H2405 | 0.853
HOP-62 | 0.811
HCC-44 | 0.768
SK-MES-1 | 0.911
LU99A | 0.49
BEN | 0.872
HARA | 1.02
HCC-78 | 0.328
NCI-H322M | 0.832
LCLC-97TM1 | 0.255
NCI-H2009 | 1.14
A-427 | 0.835
NCI-H661 | 0.931
NCI-H1734 | 0.747

Cell Line | relative viability
NCI-H460 | 0.952
NCI-H2347 | 0.615
SK-LU-1 | 1.01
201T | 1.07
NCI-H1915 | 0.816
HCC-827 | 0.932
LXF-289 | 0.842
NCI-H23 | 0.554
NCI-H647 | 1.12
CAL-12T | 0.725
NCI-H1651 | 0.838
EPLC-272H | 1.06
NCI-H2228 | 0.53
NCI-H1792 | 0.946
NCI-H1355 | 1.04
NCI-H3122 | 0.293

same assay, conditions: first compound 1.265 µM

Cell Line | relative viability
COR-L23 | 0.572
COR-L 105 | 0.704
LOU-NH91 | 0.727
NCI-H2405 | 0.838
HOP-62 | 0.812
HCC-44 | 0.828
SK-MES-1 | 1.03
LU99A | 0.565
BEN | 0.798
HARA | 0.746
HCC-78 | 0.332
NCI-H322M | 0.944
LCLC-97TM1 | 0.287
NCI-H2009 | 1.04
A-427 | 0.966
NCI-H661 | 1.07
NCI-H1734 | 0.607

Cell Line | relative viability
NCI-H460 | 0.851
NCI-H2347 | 0.617
SK-LU-1 | 0.852
201T | 1.09
NCI-H1915 | 0.868
HCC-827 | 0.866
LXF-289 | 0.857
NCI-H23 | 0.437
NCI-H647 | 0.93
CAL-12T | 0.603
NCI-H1651 | 0.888
EPLC-272H | 0.948
NCI-H2228 | 0.346
NCI-H1792 | 1.01
NCI-H1355 | 1.01
NCI-H3122 | 0.286

same assay, conditions: first compound 4 µM

Cell Line | relative viability
COR-L23 | 0.541
COR-L 105 | 0.422
LOU-NH91 | 0.749
NCI-H2405 | 0.791
HOP-62 | 0.835
HCC-44 | 0.835
SK-MES-1 | 0.912
LU99A | 0.635
BEN | 0.842
HARA | 0.917
HCC-78 | 0.334
NCI-H322M | 0.876
LCLC-97TM1 | 0.293
NCI-H2009 | 0.784
A-427 | 0.942
NCI-H661 | 0.959

Cell Line | relative viability
NCI-H1734 | 0.706
NCI-H460 | 0.64
NCI-H2347 | 0.625
SK-LU-1 | 0.83
201T | 1.06
NCI-H1915 | 0.914
HCC-827 | 0.927
LXF-289 | 0.856
NCI-H23 | 0.447
NCI-H647 | 0.852
CAL-12T | 0.344
NCI-H1651 | 0.814
EPLC-272H | 0.91
NCI-H2228 | 0.405
NCI-H1792 | 0.905
NCI-H1355 | 0.983
